Laboratory results: patent publication US20240190868A1, “SOS1 INHIBITORS” (Acerand Therapeutics (USA) Limited, priority 2022, published 2024)

Tested on: cellular pERK in NCI-H1975 cells (EGFR/L858R-T790M)
Experiment: pERK potency assay (In Cell ELISA)
Format: cell-based
Conditions: Homo sapiens, 1 h compound incubation
From the text: The assay measures the ability of a compound to inhibit SOS1 function in cells. SOS1 activates RAS proteins by catalyzing the conversion of RAS GDP to RAS GTP in response to receptor tyrosine kinase activation. Activation of RAS induces a sequence of cellular signaling events that result in increased phosphorylation of ERK at Threonine 202 and Tyrosine 204 (pERK). The procedure (i.e., In Cell ELISA as described below) measures the level of cellular pERK in response to a test compound in NCI-H1975 cells (EGFR/L858R-T790M).
First, NCI-H1975 cells were grown and maintained using media and procedures recommended by the ATCC. A day before compound addition, cells were plated in poly-D-lysine coated 96-well cell culture plates (Corning® BioCoat® Cat #356640) at 25000 cells/well/100 μL and grown overnight in an incubator at 37° C. with 5% CO2. A solution of a test compound was prepared with 3-fold serial dilutions in DMSO having a top concentration of 6 mM. On the day of the assay, 50 μL of a test compound dilution in media was added to each well of cell culture plate with a final compound concentration in the range of 0.001 μM to 20 μM. After addition of the compound, cells were incubated for 1 h at 37° C. with 5% CO2, after which the culture medium was removed. Cells were fixed with 4% formaldehyde in phosphate-buffered saline (PBS) and incubated at RT for 20 min. The plate was washed three times with PBST (PBS with 0.05% Tween®-20), followed by incubation with 100 μL of pre-cooled methanol at −20° C. for 20 min. After incubation, methanol was removed. The plate was again washed with PBST. Cells were then permeabilized with 100 μL/well of 0.1% Triton X-100 in PBS at RT for 20 min and then quenched with a quenching buffer (PBST containing 1% H2O2 and 0.1% sodium azide) for 20 min at RT with gentle shaking. After washing once with PBST, a blocking buffer (250 uL/well, Pierce™ Protein-Free-PBS Blocking Buffer, Cat #37572) was then added to the cells for 1-h incubation at RT, followed by an anti-pERK antibody (cell signaling, 1:1000 dilution in 5% BSA in PBST) incubation overnight at 4° C. and a secondary antibody-HRP (Jackson immunoresearch, 1:3000 dilution in 5% BSA in PBST) incubation at RT for 1 h. PBST wash was carried out after each step three times. Before the addition of a substrate (Advansta ELISABright™), the plate was washed with PBS twice to remove detergent residues. The Cellular pERK level was determined using the microplate reader (Biotek Synergy™ H1) to detect the chemiluminescence signal. IC50 was determined by fitting a 4-parameter sigmoidal concentration-response model.

Compound | IC50 [nM]
CC(=O)N1CC=C(c2cc3/c(=N/[C@H](C)c4cccc(C#N)c4C)nc4n(c3cn2)CCO4)CC1 [Compound 34] | < 100
CC(=O)N1CCC(F)(c2cc3/c(=N/[C@H](C)c4cccc(C#N)c4C)nc4n(c3cn2)CCO4)CC1 [Compound 35] | < 100
CC(=O)N1CC=C(c2ccc3c(c2)/c(=N/[C@H](C)c2cccc(C(F)(F)F)c2C)nc(C)n3C)CC1 [Compound 37] | < 100
Cc1c(C#N)cccc1[C@@H](C)/N=c1\nc(C)n(C)c2ccc(C3=CCOCC3)cc12 [Compound 38] | < 100
Cc1c(C#N)cccc1[C@@H](C)/N=c1\nc(C)n(C)c2cnc(C3=CCC(F)(F)CC3)cc12 [Compound 40] | < 100
Cc1c(C#N)cccc1[C@@H](C)/N=c1\nc(C)n(C)c2cnc(C3=CCOCC3)cc12 [Compound 41] | < 100
CC(=O)N1CCC(F)(c2cc3/c(=N/[C@H](C)c4cccc(C(F)(F)F)c4C)nc(C)n(C)c3cn2)C[C@H]1C (stereo partly drawn) [Compound 45, 1-((2R)-4-((Z)-1,2-dimethyl-4-(((R)-1-(2-methyl-3-(trifluoromethyl)phenyl)ethyl)imino)-1,4-dihydropyrido[3,4-d]pyrimidin-6-yl)-4-fluoro-2-methylpiperidin-1-yl)ethan-1-one] | < 100
CC(=O)N1CCC(F)(c2cc3/c(=N/[C@H](C)c4cccc(C(F)(F)F)c4C)nc(C)n(C)c3cn2)CC1(C)C (stereo partly drawn) [Compound 46, 1-(4-((Z)-1,2-dimethyl-4-(((R)-1-(2-methyl-3-(trifluoromethyl)phenyl)ethyl)-imino)-1,4-dihydropyrido[3,4-d]pyrimidin-6-yl)-4-fluoro-2,2-dimethylpiperidin-1-yl)ethan-1-one] | < 100
Cc1c([C@@H](C)/N=c2\nc(C)n(C)c3cnc(-c4ccn5c(C(F)(F)F)ncc5c4)cc23)cccc1C(F)(F)F [Compound 47, (R,Z)-1,2-dimethyl-N-(1-(2-methyl-3-(trifluoromethyl)phenyl)ethyl)-6-(3-(trifluoromethyl)imidazo[1,5-a]pyridin-7-yl)pyrido[3,4-d]pyrimidin-4(1H)-imine] | < 100
CC(=O)N1CCN(c2cc3/c(=N/[C@H](C)c4cccc(C#N)c4C)nc(C)n(C)c3cn2)CC1 [Compound 56] | < 100
Cc1c(C#N)cccc1[C@@H](C)/N=c1\nc(C)n(C)c2cnc(N3CCC(F)(F)CC3)cc12 [Compound 59] | < 100
Cc1c(C#N)cccc1[C@@H](C)/N=c1\nc(C)n(C)c2cnc(N3CCC4(CC3)CC4)cc12 [Compound 60] | < 100
Cc1c(C#N)cccc1[C@@H](C)/N=c1\nc(C)n(C)c2cnc(N3CCO[C@H](C)C3)cc12 [Compound 61] | < 100
Cc1c(C#N)cccc1[C@@H](C)/N=c1\nc(C)n(C)c2cnc(N3CCC4(CC4)C3)cc12 [Compound 65] | < 100
Cc1c(C#N)cccc1[C@@H](C)/N=c1\nc(C)n(C)c2cnc(N3CCC(F)(F)C3)cc12 [Compound 66] | < 100
Cc1c(C#N)cccc1[C@@H](C)/N=c1\nc(C)n(C)c2cnc(N3CCC(C)(O)CC3)cc12 [Compound 67] | < 100
Cc1c(C#N)cccc1[C@@H](C)/N=c1\nc(C)n(C)c2cnc(N3CC(F)C3)cc12 [Compound 69] | < 100
Cc1c(C#N)cccc1[C@@H](C)/N=c1\nc(C)n(C)c2cnc(N3CC4CC4C3)cc12 (stereo partly drawn) [Compound 72] | < 100
Cc1c(C#N)cccc1[C@@H](C)/N=c1\nc(C)n(C)c2cnc(N3CC(C)(O)C3)cc12 [Compound 73] | < 100
Cc1c(C#N)cccc1[C@@H](C)/N=c1\nc(C)n(C)c2cnc(N3CCOC[C@H]3C)cc12 [Compound 74] | < 100
COC1CN(c2cc3/c(=N/[C@H](C)c4cccc(C#N)c4C)nc(C)n(C)c3cn2)C1 [Compound 76] | < 100

Second part, the molecule after the results:

IC50 [nM] | Compound
< 100 | Cc1c([C@@H](C)/N=c2\nc3n(c4cnc(C5(C(F)F)CC5)cc24)CCC3)cccc1C(F)(F)F [Compound 31, (R,Z)-3-(1-(difluoromethyl)cyclopropyl)-N-(1-(2-methyl-3-(trifluoromethyl)phenyl)ethyl)-8,9-dihydropyrido[4,3-e]pyrrolo[1,2-a]pyrimidin-5(7H)-imine]
< 100 | CC(=O)N1CC=C(c2cc3/c(=N/[C@H](C)c4cccc(C(F)(F)F)c4C)nc4n(c3cn2)CCO4)CC1 [Compound 32, (R,Z)-1-(4-(5-((1-(2-methyl-3-(trifluoromethyl)phenyl)ethyl)imino)-8,9-dihydro-5H-oxazolo[3,2-a]pyrido[4,3-e]pyrimidin-3-yl)-3,6-dihydropyridin-1(2H)-yl)ethan-1-one]
< 100 | CC(=O)N1CCC(F)(c2cc3/c(=N/[C@H](C)c4cccc(C(F)(F)F)c4C)nc4n(c3cn2)CCO4)CC1 [Compound 33, (R,Z)-1-(4-fluoro-4-(5-((1-(2-methyl-3-(trifluoromethyl)phenyl)ethyl)imino)-8,9-dihydro-5H-oxazolo[3,2-a]pyrido[4,3-e]pyrimidin-3-yl)piperidin-1-yl)ethan-1-one]
< 100 | Cc1c([C@@H](C)/N=c2\nc(C)n(C)c3ccc(C4=CCOCC4)cc23)cccc1C(F)(F)F [Compound 36]
< 100 | Cc1c([C@@H](C)/N=c2\nc(C)n(C)c3cnc(C4=CCOCC4)cc23)cccc1C(F)(F)F [Compound 39]
< 100 | Cc1c([C@@H](C)/N=c2\nc(C)n(C)c3cnc(C4=CCN(S(C)(=O)=O)CC4)cc23)cccc1C(F)(F)F [Compound 42, (R,Z)-1,2-dimethyl-N-(1-(2-methyl-3-(trifluoromethyl)phenyl)ethyl)-6-(1-(methylsulfonyl)-1,2,3,6-tetrahydropyridin-4-yl)pyrido[3,4-d]pyrimidin-4(1H)-imine]
< 100 | Cc1c([C@@H](C)/N=c2\nc(C)n(C)c3cnc(C4=CCN(C(N)=O)CC4)cc23)cccc1C(F)(F)F [Compound 43, (R,Z)-4-(1,2-dimethyl-4-((1-(2-methyl-3-(trifluoromethyl)phenyl)ethyl)imino)-1,4-dihydropyrido[3,4-d]pyrimidin-6-yl)-3,6-dihydropyridine-1(2H)-carboxamide]
< 100 | Cc1c([C@@H](C)/N=c2\nc(C)n(C)c3cnc(N4CCC(F)(F)CC4)cc23)cccc1C(F)(F)F [Compound 48, (R,Z)-6-(4,4-difluoropiperidin-1-yl)-1,2-dimethyl-N-(1-(2-methyl-3-(trifluoromethyl)phenyl)ethyl)pyrido[3,4-d]pyrimidin-4(1H)-imine]
< 100 | CC(=O)N1CCN(c2cc3/c(=N/[C@H](C)c4cccc(C(F)(F)F)c4C)nc(C)n(C)c3cn2)CC1 [Compound 49]
< 100 | Cc1c([C@@H](C)/N=c2\nc(C)n(C)c3cnc(N4CCC5(CC5)C4)cc23)cccc1C(F)(F)F [Compound 50]
< 100 | Cc1c([C@@H](C)/N=c2\nc(C)n(C)c3cnc(N4CCC5(CC4)CC5)cc23)cccc1C(F)(F)F [Compound 51]
< 100 | Cc1c([C@@H](C)/N=c2\nc(C)n(C)c3cnc(N4CCO[C@H](C)C4)cc23)cccc1C(F)(F)F [Compound 52]
< 100 | CC(=O)N1CCN(c2cnc3c(c2)/c(=N/[C@H](C)c2cccc(C(F)(F)F)c2C)nc(C)n3C)CC1 [Compound 53]
< 100 | Cc1c(C#N)cccc1[C@@H](C)/N=c1\nc(C)n(C)c2cnc(N3CCOCC3)cc12 [Compound 54, (R,Z)-3-(1-((1,2-dimethyl-6-morpholinopyrido[3,4-d]pyrimidin-4(1H)-ylidene)amino)ethyl)-2-methylbenzonitrile]
< 100 | Cc1c([C@@H](C)/N=c2\nc(C)n(C)c3cnc(N4CCOCC4)cc23)cccc1C(F)(F)F [Compound 55]
< 100 | Cc1c(C#N)cccc1[C@@H](C)/N=c1\nc(C)n(C)c2cnc(N3CCCC3)cc12 [Compound 57]
< 100 | Cc1c([C@@H](C)/N=c2\nc(C)n(C)c3cnc(N4CCC(F)(F)C4)cc23)cccc1C(F)(F)F [Compound 62]
< 100 | Cc1c(C#N)cccc1[C@@H](C)/N=c1\nc(C)n(C)c2cnc(N3CCCCC3)cc12 [Compound 64]
< 100 | CC(=O)N1CCN(c2cc3/c(=N/[C@H](C)c4cccc(C(F)(F)F)c4C)nc(C)n(C)c3cn2)C(=O)C1 [Compound 68]
< 100 | Cc1c(C#N)cccc1[C@@H](C)/N=c1\nc(C)n(C)c2cnc(N3CCC3)cc12 [Compound 71]
< 100 | Cc1c([C@@H](C)/N=c2\nc3n(c4cnc(N5CCOCC5)cc24)CCC3)cccc1C(F)(F)F [Compound 77]
